# Experimental data: patent US5500217A, “Personal care formulations” (priority 1991, dated 1996)
# Structures can show the parent of a compound that is named as a salt.
# What was measured:
# Pseudomonas aeruginosa [1] = assay: Challenge test in shampoo, number of surviving (viable) bacteria; type: cell-based, Pseudomonas aeruginosa (ATCC 19429)
# Experimental: (§1) Further aspects of the present invention are described in the following illustrative examples. Unless otherwise stated all refer to parts by weight. Also, personal care formulations in accordance with the present invention were subjected to evaluation of the antimicrobial properties of the composition. The anti-microbial evaluation was effected, under aseptic conditions throughout, in the following manner.
# (§2) In the anti-microbial evaluation, the formulations were tested for anti-microbial activity against bacteria and/or fungi. The bacteria used were either Pseudomonas aeruginosa or Staphylococcusaureus. The fungus used was Candida albicans.
# Aliquots (4 parts) of the above shampoo were then prepared with concentrations of the biocides indicated in Table 3 at 500 and 125 ppm of active ingredient.
# The above samples were then challenged with a 0.2 parts by volume inoculum of a 24 hour culture of Pseudomonas aeruginosa (ATCC 19429) containing approximately 1×10^8 colony forming units (cfu's) per milliliter. The samples were then incubated in the dark at 25° C., 1 milliliter samples taken after 24 hours, 48 hours and 7 days and the number of surviving bacteria determined.
# The procedure of Examples 4-14 were repeated using the 1:1 silver complex of N-methyl-N-hydroxythiobenzamide at four different concentrations.
# Staphylococcus aureus = assay: Anti-microbial challenge test in oil in water emulsion (base cream), Staphylococcus aureus; type: cell-based, Staphylococcus aureus (ATCC 6538); settings: viable count < 10^2 cells cm^-3; for MLC, SA, 7d: 7 days
# Experimental: as §1, §2
# (§3) To aliquots (20 parts) of the emulsion were added various anti-microbial agents at concentrations of 500, 125, 31.25 and 7.8 ppm of active ingredients.
# (§4) One sample of each mixture was inoculated with 0.2 parts by volume of a 24 hour culture of Staphylococcus aureus (ATCC 6538) containing 10^8 cells cm^-3. Duplicate samples of each mixture were inoculated with 0.2 parts by volume of a 48 hour culture of Candida albicans (ATCC 10231) containing 10^8 cells cm^-3.
# (§5) The samples were then incubated and samples removed after 24 hours, 48 hours and 7 days as described in Examples 1 and 2 with the exception that the samples were not subjected to a further challenge after seven days.
# Candida albicans = assay: Anti-microbial challenge test in oil in water emulsion (base cream), Candida albicans; type: cell-based, Candida albicans (ATCC 10231); settings: viable count < 10^2 cells cm^-3; for MLC, CA, 7d: 7 days
# Experimental: as §1, §2, §3, §4, §5
# Pseudomonas aeruginosa [2] = assay: Anti-microbial challenge test in protein-containing shampoo (MLC, two challenges); type: cell-based, Pseudomonas aeruginosa (ATCC 19429); settings: viable count < 10^2 cells cm^-3; for MLC, Challenge 1, 48h / MLC, Challenge 1, 7d: first challenge; for MLC, Challenge 1, 7d / MLC, Challenge 2, 7d: 7 days
# Experimental: as §1, §2
# To aliquots (20 parts) of the shampoo formulation prepared as described were added various anti-microbial agents at concentrations of 125, 62.5, 31.25, 7.8 and 1.56 ppm of active ingredient, not all of the anti-microbial agents being used at all of these levels. The anti-microbial agents, and the levels used are as set out in Table One.
# One sample of a mixture of the shampoo formulation and the anti-microbial agent was stored for one month (4 weeks) at 40° C. and a duplicate sample of the mixture was stored for one month at ambient temperature (about 20° C.).
# The variants thus obtained were then challenged with a 0.2 parts by volume inoculum of a 24 hour culture of Pseudomonas aeruginosa (ATCC 19429) containing approximately 1×10^8 colony forming units (cfu's) per cm^3. The variants were than incubated in the dark at 25° C., and samples (one cm^3) were taken after 24 hours, 48 hours and 7 days. The number of surviving bacteria was determined by the decimal dilution method and the viable cells enumerated by incubation of the survivor detection plates at 30° C. for three days.
# The results are shown in Table One in which the concentration of anti-microbial agent is the minimum required to reduce the count of viable cells to less than 10^2 cells cm^-3.
# After removing the seven day sample, the samples of the shampoo formulation were challenged with a further 0.2 parts of a similar Pseudomonas aeruginosa culture and incubation at 25° C. was continued. Further one cm^3 samples were removed after 24 hours, 48 hours and 7 days and the number of surviving bacteria was determined in the same manner.
# [3] = (S): shampoo stored one month at 40° C.
# [4] = (S): shampoo stored one month at 40° C., second challenge
# [5] = shampoo stored one month at ambient temperature
# [6] = shampoo stored one month at ambient temperature, second challenge
SMILES,"Viable bacteria after 24 hr (Pseudomonas aeruginosa [1]; Table 3, 125 ppm)","Viable bacteria after 48 hr (Pseudomonas aeruginosa [1]; Table 3, 125 ppm)","Viable bacteria after 7 days (Pseudomonas aeruginosa [1]; Table 3, 125 ppm)","Viable bacteria after 24 hr (Pseudomonas aeruginosa [1]; Table 3, 500 ppm)","Viable bacteria after 48 hr (Pseudomonas aeruginosa [1]; Table 3, 500 ppm)","Viable bacteria after 7 days (Pseudomonas aeruginosa [1]; Table 3, 500 ppm)",further results
"Cc1csc(=S)n1O [Example 4, 3hydroxy-4-methylthiazol-2(3H)-thione]",1.7 E4,> 3.0 E4,> 3.0 E4,1.2 E4,> 3.0 E4,> 3.0 E4,
Cc1csc(=S)n1[O-].Cc1csc(=S)n1[O-].Cc1csc(=S)n1[O-].[Y+3] [Example 6],4.5 E4,> 1.0 E4,< 3.0 E4,1.4 E4,> 3.0 E4,< 3.0 E4,
Cc1csc(=S)n1[O-].Cc1csc(=S)n1[O-].[Mn+2] [Example 7],2.4 E4,> 3.0 E4,> 3.0 E4,3.5 E4,> 3.0 E4,> 3.0 E4,
Cc1csc(=S)n1[O-].Cc1csc(=S)n1[O-].Cc1csc(=S)n1[O-].[Co+3] [Example 8],2.1 E3,< 10,< 10,1.2 E3,< 10,< 10,
Cc1csc(=S)n1[O-].Cc1csc(=S)n1[O-].Cc1csc(=S)n1[O-].[Sc+3] [Example 9],2.6 E3,8.0,< 10,2.0 E3,1.7 E2,< 10,
Cc1csc(=S)n1[O-].Cc1csc(=S)n1[O-].Cc1csc(=S)n1[O-].[In+3] [Example 11],9.1 E2,< 10,< 10,< 10,< 10,< 10,
Cc1csc(=S)n1[O-].Cc1csc(=S)n1[O-].[O]=[V+2] [Example 12],1.5 E4,> 3.0 E4,8.3 E5,1.3 E3,< 10,< 10,
Cc1csc(=S)n1[O-].Cc1csc(=S)n1[O-].[Co+2] [Example 13],2.1 E3,< 10,< 10,5.2 E2,< 10,< 10,
Cc1csc(=S)n1[O-].Cc1csc(=S)n1[O-].[Zn+2] [Example 14],3.3 E3,< 10,< 10,4.4 E3,< 10,< 10,
"CN(O)C(=S)c1ccccc1.[Ag] [Example 15, 1:1 silver complex of N-methyl-N-hydroxythiobenzamide]",,,,,,,"Viable bacteria after 24 hrs (Pseudomonas aeruginosa [1]; Table 4, 7.13 ppm): < 10; Viable bacteria after 48 hrs (Pseudomonas aeruginosa [1]; Table 4, 7.13 ppm): < 10; Viable bacteria after 7 days (Pseudomonas aeruginosa [1]; Table 4, 7.13 ppm): < 10; Viable bacteria after 24 hrs (Pseudomonas aeruginosa [1]; Table 4, 31.25 ppm): < 10; Viable bacteria after 48 hrs (Pseudomonas aeruginosa [1]; Table 4, 31.25 ppm): < 10; Viable bacteria after 7 days (Pseudomonas aeruginosa [1]; Table 4, 31.25 ppm): < 10; Viable bacteria after 24 hrs (Pseudomonas aeruginosa [1]; Table 4, 125 ppm): < 10; Viable bacteria after 48 hrs (Pseudomonas aeruginosa [1]; Table 4, 125 ppm): < 10; Viable bacteria after 7 days (Pseudomonas aeruginosa [1]; Table 4, 125 ppm): < 10; Viable bacteria after 24 hrs (Pseudomonas aeruginosa [1]; Table 4, 500 ppm): < 10; Viable bacteria after 48 hrs (Pseudomonas aeruginosa [1]; Table 4, 500 ppm): < 10; Viable bacteria after 7 days (Pseudomonas aeruginosa [1]; Table 4, 500 ppm): < 10"
"On1ccccc1=S [SP, sodium salt of 1hydroxy-2-pyridinethione]",,,,,,,"MLC, SA, 24h (Staphylococcus aureus): > 500 ppm w/v; MLC, SA, 48h (Staphylococcus aureus): 500 ppm w/v; MLC, SA, 7d (Staphylococcus aureus): 125 ppm w/v; MLC, CA, 24h (Candida albicans): 500 ppm w/v; MLC, CA, 48h (Candida albicans): 500 ppm w/v; MLC, CA, 7d (Candida albicans): 31.25 ppm w/v"
"[O-]n1ccccc1=S.[O-]n1ccccc1=S.[Zn+2] [ZP, 1:2 complex of zinc with 1hydroxy-2-pyridinethione]",,,,,,,"MLC, SA, 24h (Staphylococcus aureus): > 500 ppm w/v; MLC, SA, 48h (Staphylococcus aureus): > 500 ppm w/v; MLC, SA, 7d (Staphylococcus aureus): 500 ppm w/v; MLC, CA, 24h (Candida albicans): 500 ppm w/v; MLC, CA, 48h (Candida albicans): 500 ppm w/v; MLC, CA, 7d (Candida albicans): 31.25 ppm w/v"
"Cc1csc(=S)n1O.Cc1csc(=S)n1O.[Zn] [ZTA, 2:1 complex of 3hydroxy-4-methyl-thiazol-2(3H) thione and zinc]",6.2 E3,< 10,< 10,7.6 E3,< 10,< 10,"MLC, SA, 24h (Staphylococcus aureus): 500 ppm w/v; MLC, SA, 48h (Staphylococcus aureus): 31.25 ppm w/v; MLC, SA, 7d (Staphylococcus aureus): 7.8 ppm w/v; MLC, CA, 24h (Candida albicans): 31.25 ppm w/v; MLC, CA, 48h (Candida albicans): 31.25 ppm w/v; MLC, CA, 7d (Candida albicans): 31.25 ppm w/v; MLC, Challenge 1, 48h (Pseudomonas aeruginosa [2]; [3]): 62.5 ppm w/v; MLC, Challenge 1, 7d (Pseudomonas aeruginosa [2]; [3]): 62.5 ppm w/v; MLC, Challenge 2, 48h (Pseudomonas aeruginosa [2]; [4]): 62.5 ppm w/v; MLC, Challenge 2, 7d (Pseudomonas aeruginosa [2]; [4]): 62.5 ppm w/v; MLC, Challenge 1, 48h (Pseudomonas aeruginosa [2]; [5]): 7.8 ppm w/v; MLC, Challenge 1, 7d (Pseudomonas aeruginosa [2]; [5]): 7.8 ppm w/v; MLC, Challenge 2, 24h (Pseudomonas aeruginosa [2]; shampoo stored one month at ambient temperature, second challenge, 24 h): 31.25 ppm w/v; MLC, Challenge 2, 48h (Pseudomonas aeruginosa [2]; [6]): 31.25 ppm w/v; MLC, Challenge 2, 7d (Pseudomonas aeruginosa [2]; [6]): 31.25 ppm w/v"
